Data from US20240034744A1, “COMPLEX COMPOUND OF COMPRISING THE CITRATE AND IRON ION AND THE FOOD COMPOSITION COMPRISING THE SAME” (priority 2022, published 2024).

Assay: Measurement of solubility in water
Type: physicochemical
Details: 200 g/L in 15° C. water

Substance	proportion of the complex compound dissolved	proportion of the complex compound precipitated	time for dissolution (100% dissolved)
iron-citrate complex compound [Comparative Example 1]	10%	90%	–
iron-citrate complex compound [Example 1]	100%	–	≤ 5 min
